Data as given in the CheMixHub viscosity set.
± gives the uncertainty stated by the source.

Assay: xn = mol fraction of the nth substance listed

**Q.** For `NC=O` + CCCO, which viscosity (293.15 K, 101 kPa, x1 = 0.0557) is on record?
**A.** 2.16 ± 0.013 mPa·s

**Q.** And the viscosity (293.15 K, 101 kPa, x1 = 0.1172)?
**A.** 2.201 ± 0.014 mPa·s

**Q.** What about the viscosity (293.15 K, 101 kPa, x1 = 0.1854) of the same compound?
**A.** 2.285 ± 0.014 mPa·s

**Q.** And the viscosity (293.15 K, 101 kPa, x1 = 0.2615)?
**A.** 2.419 ± 0.015 mPa·s

**Q.** What about the viscosity (298.15 K, 100 kPa, x1 = 0.0744) of the same compound?
**A.** 1.97 ± 0.04 mPa·s

**Q.** What about the viscosity (298.15 K, 100 kPa, x1 = 0.116) of the same compound?
**A.** 1.98 ± 0.04 mPa·s

**Q.** And the viscosity (298.15 K, 100 kPa, x1 = 0.1885)?
**A.** 2.07 ± 0.05 mPa·s

**Q.** And the viscosity (298.15 K, 100 kPa, x1 = 0.294)?
**A.** 2.27 ± 0.05 mPa·s

**Q.** What about the viscosity (298.15 K, 100 kPa, x1 = 0.3225) of the same compound?
**A.** 2.33 ± 0.05 mPa·s

**Q.** And the viscosity (298.15 K, 100 kPa, x1 = 0.331)?
**A.** 2.4 ± 0.05 mPa·s

**Q.** What about the viscosity (298.15 K, 100 kPa, x1 = 0.4121) of the same compound?
**A.** 2.54 ± 0.06 mPa·s

**Q.** What about the viscosity (298.15 K, 100 kPa, x1 = 0.4562) of the same compound?
**A.** 2.61 ± 0.06 mPa·s

**Q.** What about the viscosity (298.15 K, 100 kPa, x1 = 0.4974) of the same compound?
**A.** 2.73 ± 0.06 mPa·s

**Q.** And the viscosity (298.15 K, 100 kPa, x1 = 0.5225)?
**A.** 2.76 ± 0.06 mPa·s

**Q.** What about the viscosity (298.15 K, 100 kPa, x1 = 0.6129) of the same compound?
**A.** 2.96 ± 0.06 mPa·s

**Q.** And the viscosity (298.15 K, 100 kPa, x1 = 0.6877)?
**A.** 3.09 ± 0.07 mPa·s

**Q.** And the viscosity (298.15 K, 100 kPa, x1 = 0.7379)?
**A.** 3.17 ± 0.07 mPa·s

**Q.** And the viscosity (298.15 K, 100 kPa, x1 = 0.8232)?
**A.** 3.28 ± 0.07 mPa·s

**Q.** What about the viscosity (298.15 K, 100 kPa, x1 = 0.8536) of the same compound?
**A.** 3.31 ± 0.07 mPa·s

**Q.** What about the viscosity (298.15 K, 100 kPa, x1 = 0.9169) of the same compound?
**A.** 3.36 ± 0.07 mPa·s

**Q.** And the viscosity (298.15 K, 100 kPa, x1 = 0.9506)?
**A.** 3.34 ± 0.07 mPa·s

**Q.** And the viscosity (298.15 K, 101 kPa, x1 = 0.0557)?
**A.** 1.938 ± 0.012 mPa·s

**Q.** And the viscosity (298.15 K, 101 kPa, x1 = 0.1172)?
**A.** 1.976 ± 0.012 mPa·s

**Q.** What about the viscosity (298.15 K, 101 kPa, x1 = 0.1854) of the same compound?
**A.** 2.052 ± 0.013 mPa·s

**Q.** What about the viscosity (298.15 K, 101 kPa, x1 = 0.2615) of the same compound?
**A.** 2.181 ± 0.013 mPa·s

**Q.** What about the viscosity (303.15 K, 101 kPa, x1 = 0.0557) of the same compound?
**A.** 1.742 ± 0.011 mPa·s

**Q.** And the viscosity (303.15 K, 101 kPa, x1 = 0.1172)?
**A.** 1.775 ± 0.011 mPa·s

**Q.** What about the viscosity (303.15 K, 101 kPa, x1 = 0.1854) of the same compound?
**A.** 1.846 ± 0.012 mPa·s

**Q.** And the viscosity (303.15 K, 101 kPa, x1 = 0.2615)?
**A.** 1.962 ± 0.012 mPa·s

**Q.** What about the viscosity (303.15 K, 101 kPa, x2 = 0.0999) of the same compound?
**A.** 2.877 ± 0.028 mPa·s

**Q.** And the viscosity (303.15 K, 101 kPa, x2 = 0.2004)?
**A.** 2.813 ± 0.027 mPa·s

**Q.** And the viscosity (303.15 K, 101 kPa, x2 = 0.3002)?
**A.** 2.706 ± 0.026 mPa·s

**Q.** What about the viscosity (303.15 K, 101 kPa, x2 = 0.4) of the same compound?
**A.** 2.554 ± 0.024 mPa·s

**Q.** And the viscosity (303.15 K, 101 kPa, x2 = 0.5)?
**A.** 2.378 ± 0.022 mPa·s

**Q.** What about the viscosity (303.15 K, 101 kPa, x2 = 0.6) of the same compound?
**A.** 2.191 ± 0.021 mPa·s

**Q.** What about the viscosity (303.15 K, 101 kPa, x2 = 0.6998) of the same compound?
**A.** 2.022 ± 0.019 mPa·s

**Q.** And the viscosity (303.15 K, 101 kPa, x2 = 0.8)?
**A.** 1.87 ± 0.017 mPa·s

**Q.** What about the viscosity (303.15 K, 101 kPa, x2 = 0.9001) of the same compound?
**A.** 1.756 ± 0.017 mPa·s

**Q.** And the viscosity (303.15 K, 101.3 kPa, x1 = 0.0961)?
**A.** 1.6 ± 0.1 mPa·s

**Q.** What about the viscosity (303.15 K, 101.3 kPa, x1 = 0.1755) of the same compound?
**A.** 1.7 ± 0.1 mPa·s

**Q.** And the viscosity (303.15 K, 101.3 kPa, x1 = 0.2494)?
**A.** 1.8 ± 0.1 mPa·s

**Q.** What about the viscosity (303.15 K, 101.3 kPa, x1 = 0.3192) of the same compound?
**A.** 1.9 ± 0.1 mPa·s

**Q.** And the viscosity (303.15 K, 101.3 kPa, x1 = 0.3902)?
**A.** 2 ± 0.1 mPa·s

**Q.** What about the viscosity (303.15 K, 101.3 kPa, x1 = 0.4629) of the same compound?
**A.** 2.1 ± 0.1 mPa·s

**Q.** What about the viscosity (303.15 K, 101.3 kPa, x1 = 0.5342) of the same compound?
**A.** 2.2 ± 0.1 mPa·s

**Q.** What about the viscosity (303.15 K, 101.3 kPa, x1 = 0.614) of the same compound?
**A.** 2.4 ± 0.1 mPa·s

**Q.** What about the viscosity (303.15 K, 101.3 kPa, x1 = 0.6891) of the same compound?
**A.** 2.6 ± 0.1 mPa·s

**Q.** And the viscosity (303.15 K, 101.3 kPa, x1 = 0.7654)?
**A.** 2.7 ± 0.1 mPa·s

**Q.** And the viscosity (303.15 K, 101.3 kPa, x1 = 0.8114)?
**A.** 2.7 ± 0.1 mPa·s

**Q.** And the viscosity (303.15 K, 101.3 kPa, x1 = 0.921)?
**A.** 2.8 ± 0.1 mPa·s

**Q.** And the viscosity (308.15 K, 101 kPa, x1 = 0.0557)?
**A.** 1.584 ± 0.01 mPa·s

**Q.** And the viscosity (308.15 K, 101 kPa, x1 = 0.1172)?
**A.** 1.618 ± 0.01 mPa·s

**Q.** What about the viscosity (308.15 K, 101 kPa, x1 = 0.1854) of the same compound?
**A.** 1.678 ± 0.011 mPa·s

**Q.** What about the viscosity (308.15 K, 101 kPa, x1 = 0.2615) of the same compound?
**A.** 1.798 ± 0.011 mPa·s

**Q.** And the viscosity (308.15 K, 101 kPa, x2 = 0.0999)?
**A.** 2.554 ± 0.025 mPa·s

**Q.** And the viscosity (308.15 K, 101 kPa, x2 = 0.2004)?
**A.** 2.492 ± 0.024 mPa·s

**Q.** What about the viscosity (308.15 K, 101 kPa, x2 = 0.3002) of the same compound?
**A.** 2.393 ± 0.023 mPa·s

**Q.** What about the viscosity (308.15 K, 101 kPa, x2 = 0.4) of the same compound?
**A.** 2.261 ± 0.022 mPa·s

**Q.** And the viscosity (308.15 K, 101 kPa, x2 = 0.5)?
**A.** 2.11 ± 0.02 mPa·s

**Q.** What about the viscosity (308.15 K, 101 kPa, x2 = 0.6) of the same compound?
**A.** 1.949 ± 0.018 mPa·s

**Q.** And the viscosity (308.15 K, 101 kPa, x2 = 0.6998)?
**A.** 1.802 ± 0.017 mPa·s

**Q.** What about the viscosity (308.15 K, 101 kPa, x2 = 0.8) of the same compound?
**A.** 1.669 ± 0.015 mPa·s

**Q.** And the viscosity (308.15 K, 101 kPa, x2 = 0.9001)?
**A.** 1.569 ± 0.014 mPa·s

**Q.** What about the viscosity (308.15 K, 101.3 kPa, x1 = 0.0961) of the same compound?
**A.** 1.4 ± 0.1 mPa·s

**Q.** And the viscosity (308.15 K, 101.3 kPa, x1 = 0.1755)?
**A.** 1.5 ± 0.1 mPa·s

**Q.** What about the viscosity (308.15 K, 101.3 kPa, x1 = 0.2494) of the same compound?
**A.** 1.5 ± 0.1 mPa·s

**Q.** And the viscosity (308.15 K, 101.3 kPa, x1 = 0.3192)?
**A.** 1.6 ± 0.1 mPa·s

**Q.** What about the viscosity (308.15 K, 101.3 kPa, x1 = 0.3902) of the same compound?
**A.** 1.7 ± 0.1 mPa·s

**Q.** What about the viscosity (308.15 K, 101.3 kPa, x1 = 0.4629) of the same compound?
**A.** 1.8 ± 0.1 mPa·s

**Q.** What about the viscosity (308.15 K, 101.3 kPa, x1 = 0.5342) of the same compound?
**A.** 1.9 ± 0.1 mPa·s

**Q.** What about the viscosity (308.15 K, 101.3 kPa, x1 = 0.614) of the same compound?
**A.** 2.1 ± 0.1 mPa·s

**Q.** And the viscosity (308.15 K, 101.3 kPa, x1 = 0.6891)?
**A.** 2.2 ± 0.1 mPa·s
